Data from patent US9593309B2, “Media for culturing, preserving, and administering regenerative cells” (InGeneron, Inc., priority 2012, dated 2017).

Legend:
[1] = system: Ad-MSCs (canine adipose SVF cells); assay: Ad-MSC proliferation, nucleated cell counts (Syto13) of plated adipose SVF cells; format: cell-based; conditions: concentration not given
Protocol: Assays for cell proliferation, colony forming units (CFU), gene expression analyses, cell surface markers, and chondrogenic and osteogenic differentiation were performed. Cell growth and Colony Forming Units (CFU) were grown in monolayer on tissue culture grade plastic in alpha MEM, 20% FBS (v/v), pen/strep. Nucleated cell counts were performed by staining with Syto13 (Invitrogen) followed by hemacytometer counting under fluorescence microscopy. Gene expression analysis was performed by quantitative RT-PCR profiling, BioRad iQ. Flow Activated Cell Storing (FACS) analyses were performed at M.D. Anderson Cancer Center FACS Core Facilities, Houston, Tex. by GALLIOS Flow Cytometry Instruments (Beckman Coulter). […]
Media was changed at days 3 and 6. Nucleated cell counts were performed by Syto13 staining followed by hemacytometer counting under fluorescence microscopy (FIG. 1B).
Fresh canine adipose SVF cells were plated at equal nucleated cell density and grown for 7 days in culture on tissue culture plastic in the presence of complete growth media and the respective concentrations (v/v) of GAG formulation. Nucleated cell counts were performed by Syto13 staining followed by hemacytometer counting under fluorescence microscopy. […]

[2] = system: Sox2; assay: Sox2 mRNA level in cultured Ad-MSCs, normalized to β-Actin; format: cell-based, canine; conditions: 5% (v/v) formulation, 6 days culture, vs other GAG formulations
Protocol: Assays for cell proliferation, colony forming units (CFU), gene expression analyses, cell surface markers, and chondrogenic and osteogenic differentiation were performed. Cell growth and Colony Forming Units (CFU) were grown in monolayer on tissue culture grade plastic in alpha MEM, 20% FBS (v/v), pen/strep. Nucleated cell counts were performed by staining with Syto13 (Invitrogen) followed by hemacytometer counting under fluorescence microscopy. Gene expression analysis was performed by quantitative RT-PCR profiling, BioRad iQ. Flow Activated Cell Storing (FACS) analyses were performed at M.D. Anderson Cancer Center FACS Core Facilities, Houston, Tex. by GALLIOS Flow Cytometry Instruments (Beckman Coulter). For osteogenic and chondrogenic differentiation, cells were cultured in STEMPRO induction media (Invitrogen, Carlsbad, Calif.) for 14 days, fixed in 4% formalin, and stained with Alzarin red and Alcian Blue, respectively. Statistical analyses were performed by ANOVA.
Canine Ad-MSCs were grown for 6 days in culture in the presence of complete growth media and the respective 5% (v/v) GAG formulations. Magnification=100×. Sox2 levels, a marker of stem cell proliferation, were measured in total RNA samples and normalized to β-Actin mRNA. Here “GAG” represents poly-sulfated glycosaminoglycan (ADEQUAN).

hyaluronic acid [HA]
effect on cell proliferation when added to culture media [1]: pro-mitotic, but to a lesser magnitude
Sox2 levels [2]: qualitatively similar, but of lesser magnitude
